Reference: patent publication US20260183297A1, “SELECTION OF PATIENTS FOR THE TREATMENT OF FADS1-MEDIATED DISEASES OR DISORDERS USING FADS-1 INHIBITORS” (AMGEN INC., priority 2022, published 2026)
Entries after “also recorded” stand apart in the source; their conditions may differ.

What was measured:
human FADS1 = biological target: T1, human FADS1 (Homo sapiens, UniProt O60427); test: In vitro FADS1 activity assay (HEK 293 cells with FADS1 BacMam, 13C5-DGLA substrate); type: cell-based; conditions: in vitro; read-out: half-maximal inhibitory concentration (IC50) against human FADS1
T1 construct: expressed in transfected cells; host or cells: HEK 293 cells transduced with FADS1 BacMam (MOI 25)
Protocol: HEK 293 cells in Dulbecco's Modified Eagle's medium (DMEM), 10% fetal bovine serum (FBS), 1× penicillin-streptomycin-glutamine (PSG) were mixed with FADS1 BacMam or FADS2 BacMam reagents at multiplicity of infection (MOI) ratio of 25 and plated in a in 96-well poly-D-lysine-coated plate. Plates were incubated in a 37° C., 5% CO2 for 24 hours. Cells were washed with DPBS and cells were incubated with 90 ml of compound dilution in DPBS at 5% CO2, 37° C. for 20 minutes. Ten L of the substrate, ^13C5-DGLA (FADS1), or 13C-LA (FADS2) diluted in DPBS were added to the cells and incubated at 5% CO2, 37° C. for 30 minutes (FADS1) or 45 minutes (FADS2). Cells were then washed with DPBS and 50 μL of 2N NaOH were added to each well and incubated in a 65° C. oven for 1 hour for the saponification reaction. […] Samples were then subjected to LC-MS/MS detection for the following analytes for the FADS1 reaction: ^13C5-DGLA and ^13C5-AA or the following analytes for the FADS2 reaction: ^13C18-LA, ^13C18-GLA, ^13C18-DGLA and ^13C18-AA. Samples were injected onto a Poroshell 120 EC-C18 3.0×50 mm, 1.9 um id column (Agilent, Santa Clara, CA).
The analyte peak areas were quantified by using the Analyst software (SCIEX, Framingham, MA). The percent of substrate to product conversion relative to untreated control were calculated (percent of control [POC]). […]

[1] = Plasma lipid, glucose, insulin and metabolic profile measurements in DIO mice; type: in vivo, mouse; conditions: for Alanine Aminotransferase / Cholesterol / HDL-Cholesterol / Insulin / LDL-Cholesterol / Non-esterified fatty acids / Triglycerides: DIO mice plasma; for Alanine Aminotransferase / Cholesterol / HDL-Cholesterol / Insulin / LDL-Cholesterol / Non-esterified fatty acids / Triglycerides / C-reactive Protein / Glucose / Serum Amyloid A: mean ± SD
Protocol: Body weight was measured daily and used for dosing calculations. A 4-hour fasted retro-orbital blood sample was collected at baseline and day 46 and used for insulin, cholesterol, and triglyceride analysis. A 3-day average food consumption was measured on days 39-41. All animals received 0.1 ml of 2 mM ^13C5-DGLA by IP injection 23.5 hours after the last PO gavage with the different treatment to allow for 30 minutes of exposure prior to necropsy to determine the residual in vivo FADS1 activity.
Mice were bled consciously from the retro-orbital sinus, and blood was collected into EDTA plasma tubes. Plasma lipids were measured using the Olympus AU400e Chemistry Analyzer (Olympus America, Center Valley, PA). Plasma insulin was measured using the ALPCO mouse high range insulin ELISA (Alpco, Salem, NH). Blood glucose was measured using an AlphaTRAK blood glucometer (Zoetis, Parsippany, NJ).

[2] = Biomarker analysis of tissue and plasma samples (Luminex: adiponectin, leptin, PAI-1, MCP-1); type: in vivo, mouse; conditions: DIO mice, 30 mg/kg
Protocol: Frozen liver and adipose tissue samples were powdered with stainless steel Bessman Tissue Pulverizers (Spectrum Laboratory Products, Gardena, CA) per the manufacturer's instructions and the resulting tissue powders were stored in cryotubes at −80° C. until extraction. A portion of each powdered tissue sample was extracted using an in-house protein extraction buffer (50-mM Tris buffer, pH 7.4, 0.1 M NaCl and 0.1% Triton X-100) containing a protease inhibitor cocktail (Millipore Sigma, Burlington, MA). Samples were homogenized with a MagNA Lyser (Roche Diagnostics, Indianapolis, IN) for 30 seconds at 6500 rpm, placed at 4° C. for 30 minutes and then spun in a refrigerated microcentrifuge at 10,000 rpm for 10 minutes. The resulting supernatants were removed to clean 1.5 ml microfuge tubes and spun again at 14,000 rpm for 15 minutes. The final supernatants were aliquoted into labeled cluster tubes and protein concentrations were determined using a standard BCA Protein Assay (Thermo Fisher Scientific, Waltham, MA) prior to storage at −80° C.
Separate aliquots of tissue protein extracts and terminal plasma samples were used to quantify levels of various analytes. Multiple adipokines and hormones (MCP-1, leptin, insulin, and PAI-1) were assessed using a multiplex mouse-specific Luminex assay while adiponectin was evaluated using a single-plex mouse-specific Luminex assay (Millipore Sigma, Burlington, MA). All the commercial assays were performed per the manufacturer's instructions. Data were acquired on a FlexMap 3D (Luminex Corporation, Austin. TX). Tissue protein expression levels were normalized per mg of total protein.

[3] = Liver triglyceride measurement; type: in vivo, mouse; conditions: DIO mice, 8 weeks of 10 or 30 mg/kg
Protocol: Liver total lipids were homogenized and extracted using chloroform methanol solution at a ratio of 2:1. Extracted lipids were dried under nitrogen gas and suspended in 90% isopropanol, 10% Triton X-100 solution. Liver triglyceride levels in mg/g tissue were determined using total triglyceride measurement kits from Wako Diagnostics (Richmond, VA) and Sigma-Aldrich (Burlington, MA).

[4] = Tissue endocannabinoid measurement (2-AG, AEA); type: in vivo, mouse; conditions: liver and ING WAT, DIO mice, 30 mg/kg
Protocol: Approximately 200 mg of tissue per sample were used for endocannbabinoid extraction. To each frozen tissue sample, 10 μl of ice-cold 100 mM butylated hydroxytoluene (BHT; in methanol) and 0.5 ml of 100 nM AEA-d8 (in water) were added. Tissue sample solution with BHT were immediately homogenized using TissueLyser (QIAGEN, Germantown. MD) for 3 minutes at 30 Hz, followed by two consecutive 1.25 ml of ice-cold ethyl acetate:hexane (9:1) extraction. The pooled extracts were dried to complete dryness under nitrogen gas. Dried samples were redissolved in 80% acetonitrile and subjected to LC/MS analysis. 10 μl of sample was injected onto a Kinetex C18 2.1×100 mm, 2.6 μm column (Phenomenex, Torrance, CA). Mobile phase A is 0.2% acetic acid in water and mobile phase B is 0.1% formic acid in acetonitrile. The LC gradient was a 7-minute long method at a flow rate of 0.2 ml/minute consisting of an isocratic period from 0 to 1 minute at 75% B, followed by a gradient from 75 to 100% from 1 to 4 minutes, and 100 to 75% B from 4 to 7 minutes. The analyte peak areas were quantified using the Analyst software (SCIEX, Framingham MA).

[5] = DIO mice, 10 mg kg^−1, 46 or 54 days
[6] = DIO mice, 30 mg kg^−1, 46 or 54 days
[7] = DIO mice, 10 and 30 mg/kg daily oral

T1 sequence (O60427 whole entry): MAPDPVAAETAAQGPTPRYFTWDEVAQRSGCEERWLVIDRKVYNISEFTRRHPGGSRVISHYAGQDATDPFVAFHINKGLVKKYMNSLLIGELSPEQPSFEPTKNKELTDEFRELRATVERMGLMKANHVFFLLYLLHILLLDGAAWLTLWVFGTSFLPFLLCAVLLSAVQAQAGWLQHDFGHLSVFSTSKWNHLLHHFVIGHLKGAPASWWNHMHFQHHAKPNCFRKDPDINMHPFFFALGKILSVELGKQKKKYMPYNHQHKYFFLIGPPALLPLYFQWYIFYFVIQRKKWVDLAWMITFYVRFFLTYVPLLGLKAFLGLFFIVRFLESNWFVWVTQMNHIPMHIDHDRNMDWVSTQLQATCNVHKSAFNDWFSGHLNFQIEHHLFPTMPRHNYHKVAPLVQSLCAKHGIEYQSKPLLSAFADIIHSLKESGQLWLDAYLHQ

IC50 (human FADS1): 3 nM | Alanine Aminotransferase ([1]; 10 mg kg^−1, 46 or 54 days): 142.8 ± 26.6 U L^−1 | Alanine Aminotransferase ([1]; 30 mg kg^−1, 46 or 54 days): 102.0 ± 32.4 U L^−1 | hepatic triglyceride content [3]: No apparent increase
SMILES: COc1ccn2c(=O)c(-c3cnn(CC(F)(F)C(F)(F)F)c3)c(C(F)(F)F)nc2c1 [Compound A, 8-methoxy-3-(1-(2,2,3,3,3-pentafluoropropyl)-1H-pyrazol-4-yl)-2-(trifluoromethyl)-4H-pyrido[1,2-a]pyrimidin-4-one]
plasma liver enzyme alanine aminotransferase (ALT) ([1]; Compound A-treated DIO mice): decreased | Cholesterol ([1]; 10 mg kg^−1, 46 or 54 days): 173.0 ± 11.9 mg/dL | HDL-Cholesterol ([1]; 10 mg kg^−1, 46 or 54 days): 86.4 ± 8.0 mg/dL | Insulin ([1]; 10 mg kg^−1, 46 or 54 days): 3.7 ± 3.2 ng/mL | LDL-Cholesterol ([1]; 10 mg kg^−1, 46 or 54 days): 22.4 ± 2.3 mg/dL | Non-esterified fatty acids ([1]; 10 mg kg^−1, 46 or 54 days): 0.9 ± 0.1 mEq L^−1 | Triglycerides ([1]; 10 mg kg^−1, 46 or 54 days): 77.8 ± 13.7 mg/dL | Cholesterol ([1]; 30 mg kg^−1, 46 or 54 days): 165.3 ± 15.6 mg/dL | HDL-Cholesterol ([1]; 30 mg kg^−1, 46 or 54 days): 85.7 ± 5.5 mg/dL | Insulin ([1]; 30 mg kg^−1, 46 or 54 days): 2.2 ± 1.3 ng/mL | LDL-Cholesterol ([1]; 30 mg kg^−1, 46 or 54 days): 19.7 ± 2.5 mg/dL | Non-esterified fatty acids ([1]; 30 mg kg^−1, 46 or 54 days): 0.7 ± 0.1 mEq L^−1 | Triglycerides ([1]; 30 mg kg^−1, 46 or 54 days): 63.3 ± 9.7 mg/dL | C-reactive Protein [1, 5]: 43.6 ± 9.7 µg/mL | Glucose [1, 5]: 170.3 ± 22.3 mg/dL | Serum Amyloid A [1, 5]: 5.2 ± 1.3 µg/mL | plasma insulin decrease vs vehicle ([1]; DIO mice, 10 mg/kg daily oral): 74.9% | C-reactive Protein [1, 6]: 37.1 ± 6.5 µg/mL | Glucose [1, 6]: 168.6 ± 23.2 mg/dL | Serum Amyloid A [1, 6]: 4.8 ± 1.8 µg/mL | lower plasma triglycerides vs vehicle ([1]; DIO mice, 30 mg/kg daily oral): 41.6% | plasma insulin decrease vs vehicle ([1]; DIO mice, 30 mg/kg daily oral): 84.7% | plasma cholesterol [1, 7]: lowered; also recorded: trended lower | plasma triglycerides [1, 7]: dose-dependent decreases | adiponectin levels ([2]; EPI WAT): elevated | MCP-1 levels ([2]; EPI and ING WAT): trends towards lower | PAI-1 levels ([2]; EPI and ING WAT): trends towards lower | leptin levels ([2]; plasma, EPI and ING WAT): decreased | endocannabinoid (2-AG, AEA) levels [4]: Decreased levels of endocannabinoids
